The values that follow come from PubChem BioAssay (NCI).

The structures appear in SMILES notation.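 1) Cells in 96-well plates. 2) Compound, 48 h, 5 concentrations. 3) Linear interpolation between surrounding doses. 4) Unreached endpoint = highest concentration. Definition used: TGI = concentration required for complete inhibition of growth.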 A value given as a limit tells only on which side of the number the result lay.

Test systems include A549 NSCLC; CCRF-CEM leukemia; COLO 205 colon; HCT-15 colon; HT29 colon; LOX IMVI melanoma; NCI-H226 lung; NCI-H522 lung; RPMI-8226 leukemia; SF-268 CNS; SF-295 CNS; SK-MEL-2 melanoma; SK-MEL-5 melanoma; SN12C renal; SNB-19 CNS; SR leukemia; U251 CNS; KM12 colon.
Assay in all cases: NCI anticancer screen, dose series, 48 h

Consider `CSc1nc2nccnc2c(=O)[nH]1`, for which the TGI in the assay with A549 NSCLC, with CCRF-CEM leukemia, with COLO 205 colon, in the assay on HCT-15 colon, in the assay with HT29 colon and in the assay with LOX IMVI melanoma was above 100 µM each time. Besides, the TGI in the assay with NCI-H226 lung, with NCI-H522 lung, in the assay with RPMI-8226 leukemia, with SF-268 CNS, in the assay on SF-295 CNS and in the assay with SK-MEL-2 melanoma was above 100 µM each time. Besides, the TGI with SK-MEL-5 melanoma, in the assay on SN12C renal, in the assay on SNB-19 CNS, in the assay with SR leukemia and with U251 CNS was above 100 µM throughout.
In the case of `COC1CC(O[C@H]2CC[C@@]3(C)C(=CCC4(O)C3CCC35C(=O)OC6(C)O[C@@]43CCC65)C2)OC(C)C1O` (stereo partly drawn), the TGI with A549 NSCLC, in the assay on CCRF-CEM leukemia, with COLO 205 colon, in the assay on HCT-15 colon, in the assay with HT29 colon and with KM12 colon was above 100 µM each time. In addition, the TGI in the assay on NCI-H226 lung, with NCI-H522 lung, in the assay with RPMI-8226 leukemia, in the assay with SF-268 CNS, in the assay on SF-295 CNS and in the assay on SK-MEL-2 melanoma was above 100 µM in each case. The TGI in the assay with SK-MEL-5 melanoma, with SN12C renal, in the assay with SNB-19 CNS, in the assay on SR leukemia and with U251 CNS was above 100 µM throughout.
As to `O=c1c2ccccc2ncn1COCc1ccccc1`, the TGI with A549 NSCLC, in the assay on CCRF-CEM leukemia, in the assay on COLO 205 colon, in the assay with HCT-15 colon, with HT29 colon and in the assay with KM12 colon was above 100 µM each time. Also, the TGI in the assay on LOX IMVI melanoma, in the assay with NCI-H226 lung, in the assay with SF-295 CNS, in the assay on SK-MEL-2 melanoma, in the assay with SK-MEL-5 melanoma and with SNB-19 CNS was above 100 µM each time. Besides, the TGI with SR leukemia and in the assay on U251 CNS was above 100 µM each time.
As for `CON1C(=O)C2(CCCCC2)C(=O)C12C=CC(C)CC2` (stereo not drawn), the TGI in the assay with A549 NSCLC, with CCRF-CEM leukemia, in the assay on COLO 205 colon, in the assay on HCT-15 colon, with HT29 colon and in the assay with KM12 colon was above 100 µM each time. Besides, the TGI in the assay with LOX IMVI melanoma, with NCI-H226 lung, in the assay with NCI-H522 lung, in the assay on RPMI-8226 leukemia, with SF-268 CNS and with SF-295 CNS was above 100 µM each time. Besides, the TGI in the assay with SK-MEL-2 melanoma, in the assay on SK-MEL-5 melanoma, with SN12C renal, in the assay with SNB-19 CNS and in the assay on U251 CNS was above 100 µM in each case.
Regarding `O=C(/C=C/c1ccc(-c2ccccc2)cc1)c1ccccc1`, the TGI in the assay with A549 NSCLC is 56.3 µM; with CCRF-CEM leukemia it was above 100 µM; in the assay on COLO 205 colon, 52.7 µM; in the assay on HCT-15 colon it was 54.9 µM; with HT29 colon, 52.1 µM; in the assay with KM12 colon, 40.6 µM. Further, the TGI with LOX IMVI melanoma was 29.2 µM; with NCI-H226 lung, 49.3 µM; in the assay on NCI-H522 lung, 35.4 µM; in the assay with RPMI-8226 leukemia, 61.8 µM; with SF-268 CNS it was 70.1 µM; in the assay with SF-295 CNS it was above 100 µM. The TGI in the assay with SK-MEL-2 melanoma is 33.6 µM; in the assay on SK-MEL-5 melanoma, 49 µM; in the assay on SN12C renal, above 100 µM; in the assay on SR leukemia it was 87.1 µM; in the assay with U251 CNS it was 58.5 µM.
For the compound `CC(C)(Oc1ccc2c(=O)cc(-c3ccc(Cl)cc3)oc2c1)C(=O)Nc1c(Cl)cccc1Cl`, the TGI in the assay on A549 NSCLC, with CCRF-CEM leukemia, with HCT-15 colon, in the assay on HT29 colon, with KM12 colon and in the assay with LOX IMVI melanoma was above 100 µM in each case. Besides, the TGI in the assay with NCI-H522 lung, in the assay on RPMI-8226 leukemia, in the assay with SF-268 CNS, in the assay with SF-295 CNS, in the assay on SK-MEL-2 melanoma and with SK-MEL-5 melanoma was above 100 µM throughout. For the same compound, the TGI in the assay with SNB-19 CNS, in the assay on SR leukemia and in the assay with U251 CNS was above 100 µM each time.
`CC1=C(C(=O)O)N2C(=O)[C@@H](NC(=O)C(c3ccccc3)N3CSC(=S)N(C(C)C)C3)C2SC1` (stereo partly drawn): the TGI with CCRF-CEM leukemia, with COLO 205 colon, in the assay with HCT-15 colon, in the assay with HT29 colon, in the assay with KM12 colon and with LOX IMVI melanoma was above 100 µM throughout. Besides, the TGI is 66.6 µM in the assay with NCI-H522 lung; above 100 µM in the assay with RPMI-8226 leukemia; above 100 µM in the assay with SF-295 CNS; above 100 µM with SK-MEL-2 melanoma; above 100 µM with SK-MEL-5 melanoma; above 100 µM in the assay with SN12C renal. Besides, the TGI with SNB-19 CNS and in the assay with U251 CNS was above 100 µM throughout.
Take `CC(=O)NNc1ncc(C(=O)/C=C/c2ccccc2C)s1`: the TGI with A549 NSCLC, in the assay on CCRF-CEM leukemia, in the assay with COLO 205 colon, in the assay on HT29 colon, in the assay on KM12 colon and in the assay on LOX IMVI melanoma was above 100 µM each time. Also, the TGI in the assay with NCI-H522 lung, in the assay on RPMI-8226 leukemia, in the assay on SF-268 CNS, in the assay with SF-295 CNS, in the assay on SK-MEL-2 melanoma and in the assay on SK-MEL-5 melanoma was above 100 µM throughout. Also, the TGI in the assay on SNB-19 CNS and in the assay on U251 CNS was above 100 µM in each case.
Turning to `CC(=O)/C(=C/N1CC(=O)NC1=S)C(=O)Nc1ccccc1C`, the TGI in the assay with A549 NSCLC, with COLO 205 colon, with HCT-15 colon, in the assay on HT29 colon, with KM12 colon and in the assay on LOX IMVI melanoma was above 100 µM in each case. Also, the TGI in the assay with SF-268 CNS, with SF-295 CNS, in the assay with SK-MEL-2 melanoma, in the assay on SK-MEL-5 melanoma, in the assay on SN12C renal and with SNB-19 CNS was above 100 µM each time. The compound also yielded a TGI with U251 CNS above 100 µM.
